Test results as given in US20220220155A1, “VASCULAR C[…] USE THEREOF” (priority 2019, published 2022).
Where a SMILES comes first, the peptide text is derived from it. [ ]: non-standard residue; d: D form. ξ: configuration not given here. ξD = NC(CC(=O)O)C(=O)O

Columns and labels:
[1] = biological target: T1, SMase-treated LDL (Homo sapiens, UniProt P04114); test: Anti-LDL aggregation assay, turbidimetry, aggregation induced by sphingomyelinase (SMase); format: biochemical; conditions: peptide 10 μM (compound/ApoB-100 4.7/1), human LDL 1.44 mg/mL, 40 U/L Bacillus cereus SMase, 18 hours, 37° C., absorbance at 405 nm, Equation I
T1 construct: from tissue; host or cells: pooled normolipemic human plasma
T1 sequence (P04114 28-4563): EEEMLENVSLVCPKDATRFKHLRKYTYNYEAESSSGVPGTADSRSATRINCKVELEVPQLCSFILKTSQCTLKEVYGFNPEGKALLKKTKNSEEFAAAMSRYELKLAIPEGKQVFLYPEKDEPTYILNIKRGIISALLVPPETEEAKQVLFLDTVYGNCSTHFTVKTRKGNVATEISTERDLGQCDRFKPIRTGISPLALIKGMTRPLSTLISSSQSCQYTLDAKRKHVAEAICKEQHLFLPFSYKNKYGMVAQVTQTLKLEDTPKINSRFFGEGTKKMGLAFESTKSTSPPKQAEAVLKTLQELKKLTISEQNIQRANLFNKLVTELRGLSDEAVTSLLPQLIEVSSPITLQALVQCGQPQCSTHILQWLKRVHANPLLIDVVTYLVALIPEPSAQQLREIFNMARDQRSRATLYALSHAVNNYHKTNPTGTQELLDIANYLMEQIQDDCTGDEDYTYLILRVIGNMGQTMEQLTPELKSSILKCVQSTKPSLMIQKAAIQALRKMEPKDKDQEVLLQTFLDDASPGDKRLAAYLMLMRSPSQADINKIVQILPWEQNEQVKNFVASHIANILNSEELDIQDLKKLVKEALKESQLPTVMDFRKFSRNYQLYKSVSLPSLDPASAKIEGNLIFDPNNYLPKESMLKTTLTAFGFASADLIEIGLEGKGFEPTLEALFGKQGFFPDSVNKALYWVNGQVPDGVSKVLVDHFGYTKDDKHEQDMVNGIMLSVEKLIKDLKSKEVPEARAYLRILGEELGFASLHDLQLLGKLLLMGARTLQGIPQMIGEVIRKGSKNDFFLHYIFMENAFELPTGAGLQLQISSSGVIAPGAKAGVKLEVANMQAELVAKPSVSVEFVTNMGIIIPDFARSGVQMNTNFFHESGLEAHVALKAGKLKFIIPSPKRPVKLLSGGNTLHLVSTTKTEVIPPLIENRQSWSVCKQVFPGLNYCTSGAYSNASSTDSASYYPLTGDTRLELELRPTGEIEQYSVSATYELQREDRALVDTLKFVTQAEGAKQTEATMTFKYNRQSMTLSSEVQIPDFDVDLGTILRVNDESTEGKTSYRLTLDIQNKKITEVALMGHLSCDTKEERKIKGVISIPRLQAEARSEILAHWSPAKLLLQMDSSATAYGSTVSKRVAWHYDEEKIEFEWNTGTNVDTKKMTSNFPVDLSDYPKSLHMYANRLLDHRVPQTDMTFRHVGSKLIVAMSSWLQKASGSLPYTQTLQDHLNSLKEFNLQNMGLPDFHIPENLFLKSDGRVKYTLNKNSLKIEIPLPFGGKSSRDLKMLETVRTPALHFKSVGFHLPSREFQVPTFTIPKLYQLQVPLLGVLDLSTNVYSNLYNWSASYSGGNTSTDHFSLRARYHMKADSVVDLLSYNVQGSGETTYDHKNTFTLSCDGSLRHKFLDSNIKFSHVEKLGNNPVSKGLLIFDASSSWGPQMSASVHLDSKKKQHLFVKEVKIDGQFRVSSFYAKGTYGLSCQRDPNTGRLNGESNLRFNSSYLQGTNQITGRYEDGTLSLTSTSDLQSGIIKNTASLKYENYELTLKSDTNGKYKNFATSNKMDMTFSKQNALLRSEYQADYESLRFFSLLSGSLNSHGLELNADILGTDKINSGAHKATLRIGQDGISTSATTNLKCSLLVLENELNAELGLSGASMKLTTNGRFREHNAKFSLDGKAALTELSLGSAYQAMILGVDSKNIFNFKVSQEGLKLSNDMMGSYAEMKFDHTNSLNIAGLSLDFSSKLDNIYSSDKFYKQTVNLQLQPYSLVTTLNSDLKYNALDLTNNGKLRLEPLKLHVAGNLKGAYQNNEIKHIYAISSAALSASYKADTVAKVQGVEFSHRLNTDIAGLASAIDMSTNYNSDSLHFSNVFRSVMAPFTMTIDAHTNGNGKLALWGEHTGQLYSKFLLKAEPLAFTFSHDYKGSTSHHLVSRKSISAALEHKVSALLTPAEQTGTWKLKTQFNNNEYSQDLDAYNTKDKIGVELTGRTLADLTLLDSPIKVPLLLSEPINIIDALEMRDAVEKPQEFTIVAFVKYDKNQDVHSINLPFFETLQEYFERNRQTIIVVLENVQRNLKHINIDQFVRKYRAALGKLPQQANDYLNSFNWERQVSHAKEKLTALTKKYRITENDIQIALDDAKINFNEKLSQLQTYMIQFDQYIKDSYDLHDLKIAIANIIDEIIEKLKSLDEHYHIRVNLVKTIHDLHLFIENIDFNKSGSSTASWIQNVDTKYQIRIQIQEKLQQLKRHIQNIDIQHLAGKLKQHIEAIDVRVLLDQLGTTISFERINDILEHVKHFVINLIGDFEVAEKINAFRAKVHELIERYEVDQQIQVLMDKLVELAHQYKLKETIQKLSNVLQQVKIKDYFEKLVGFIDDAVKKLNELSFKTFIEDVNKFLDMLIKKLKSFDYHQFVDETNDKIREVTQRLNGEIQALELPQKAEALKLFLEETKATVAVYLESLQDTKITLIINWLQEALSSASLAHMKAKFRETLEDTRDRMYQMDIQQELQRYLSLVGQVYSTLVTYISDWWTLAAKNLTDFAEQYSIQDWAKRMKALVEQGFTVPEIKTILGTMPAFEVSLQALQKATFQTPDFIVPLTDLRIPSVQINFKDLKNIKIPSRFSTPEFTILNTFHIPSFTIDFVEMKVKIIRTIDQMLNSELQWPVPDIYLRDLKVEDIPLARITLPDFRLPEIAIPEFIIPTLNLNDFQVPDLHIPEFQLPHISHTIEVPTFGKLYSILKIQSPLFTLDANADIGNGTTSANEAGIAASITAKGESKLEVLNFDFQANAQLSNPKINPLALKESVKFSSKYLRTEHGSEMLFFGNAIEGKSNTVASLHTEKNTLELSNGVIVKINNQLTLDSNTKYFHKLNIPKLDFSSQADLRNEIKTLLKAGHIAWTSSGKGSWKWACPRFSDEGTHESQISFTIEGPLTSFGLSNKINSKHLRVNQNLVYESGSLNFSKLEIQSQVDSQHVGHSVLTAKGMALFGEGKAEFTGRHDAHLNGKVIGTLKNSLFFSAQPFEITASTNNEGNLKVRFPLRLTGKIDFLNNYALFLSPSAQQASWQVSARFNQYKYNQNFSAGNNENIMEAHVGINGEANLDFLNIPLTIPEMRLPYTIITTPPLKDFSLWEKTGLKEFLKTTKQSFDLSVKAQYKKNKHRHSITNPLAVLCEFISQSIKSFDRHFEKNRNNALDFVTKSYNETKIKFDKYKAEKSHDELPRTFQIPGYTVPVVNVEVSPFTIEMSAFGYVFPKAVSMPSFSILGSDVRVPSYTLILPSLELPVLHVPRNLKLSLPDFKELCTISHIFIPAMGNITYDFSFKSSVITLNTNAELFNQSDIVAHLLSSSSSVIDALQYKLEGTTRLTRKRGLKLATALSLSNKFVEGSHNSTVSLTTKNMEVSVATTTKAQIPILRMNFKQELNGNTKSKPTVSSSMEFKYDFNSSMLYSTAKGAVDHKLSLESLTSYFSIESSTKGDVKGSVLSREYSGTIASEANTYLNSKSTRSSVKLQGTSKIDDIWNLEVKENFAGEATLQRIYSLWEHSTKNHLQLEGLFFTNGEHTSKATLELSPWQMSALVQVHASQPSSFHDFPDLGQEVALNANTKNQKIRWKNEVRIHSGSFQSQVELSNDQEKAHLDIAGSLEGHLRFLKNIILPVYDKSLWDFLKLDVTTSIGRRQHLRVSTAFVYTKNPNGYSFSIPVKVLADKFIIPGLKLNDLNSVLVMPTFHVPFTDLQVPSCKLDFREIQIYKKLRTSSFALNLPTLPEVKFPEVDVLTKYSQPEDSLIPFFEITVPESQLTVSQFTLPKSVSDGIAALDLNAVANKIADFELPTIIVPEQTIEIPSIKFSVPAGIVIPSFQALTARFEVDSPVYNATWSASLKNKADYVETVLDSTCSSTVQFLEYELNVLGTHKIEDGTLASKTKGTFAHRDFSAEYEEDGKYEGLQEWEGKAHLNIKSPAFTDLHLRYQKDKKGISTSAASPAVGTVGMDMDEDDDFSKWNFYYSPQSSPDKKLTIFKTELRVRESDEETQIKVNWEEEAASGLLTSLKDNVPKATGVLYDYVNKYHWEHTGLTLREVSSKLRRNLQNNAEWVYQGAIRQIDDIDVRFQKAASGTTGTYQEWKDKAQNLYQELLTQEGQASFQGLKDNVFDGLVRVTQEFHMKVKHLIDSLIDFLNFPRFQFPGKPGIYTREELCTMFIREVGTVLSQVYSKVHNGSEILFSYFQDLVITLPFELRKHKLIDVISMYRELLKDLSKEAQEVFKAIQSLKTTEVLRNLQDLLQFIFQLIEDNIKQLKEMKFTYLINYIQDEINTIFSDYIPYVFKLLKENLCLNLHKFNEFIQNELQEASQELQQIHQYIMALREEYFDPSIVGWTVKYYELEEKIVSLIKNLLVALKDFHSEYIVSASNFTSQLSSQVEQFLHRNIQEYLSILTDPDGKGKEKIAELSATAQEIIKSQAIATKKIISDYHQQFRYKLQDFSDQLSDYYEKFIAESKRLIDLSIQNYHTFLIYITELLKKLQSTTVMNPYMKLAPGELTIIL
Procedure: (§1) The efficacy of the novel compounds to inhibit the aggregation of LDL has been tested in two parallel turbidimetric assays differing from each other only in the enzyme used to induce LDL aggregation, namely sphingomyelinase (SMase) and phospholipase A2 (PLA2), respectively.
(§2) Human LDL (d1.019-d1.063 g/mL) were obtained from pooled normolipemic human plasma by sequential ultracentrifugation in a KBr density gradient. Briefly, VLDL were first discarded after spinning plasma at 36.000 rpm for 18 h at 4° C., VLDL-free plasma was layered with 1.063 g/mL KBr solution and centrifuged at 36,000 rpm for 18 h at 4° C. LDL were dialyzed against 0.02 M Tris, 0.15 M NaCl, 1 mM EDTA, pH 7.5 for 18 hours, and then against normal saline for 2 hours. Finally, isolated LDL were filter-sterilized. Protein concentration was determined using a colorimetric assay.
(§3) Human LDL particles (1.44 mg/mL) were incubated with 40 U/L of Bacillus cereus SMase or with 50 μg/L of type II secretory PLA2 from honey bee venom in 20 mM Tris buffer (pH 7.0) containing 150 mM NaCl, 2 mM CaCl2), and MgCl2 at 37° C. LDL incubation with SMase and PLA2 was performed at peptide concentration of 10 μM (ratio compound/ApoB-100: 4.7/1) for 18 hours. LDL lipolysis was stopped by addition of EDTA (final concentration 10 mM).
(§4) The efficiency of each novel compound to inhibit LDL aggregation induced by SMase and PLA2 was estimated by turbidimetry measuring the absorbance at a wavelength of 405 nm. Thus, the inhibitory activity was calculated according to Equation I.
(§5) a corresponds to the absorbance value in the presence of nLDL particles, LDL aggregating enzyme (i.e., SMase or PLA2) and test compound;
(§6) b corresponds to the absorbance value in the presence of only nLDL particles;
(§7) c corresponds to the absorbance value in the presence of nLDL particles and LDL aggregating enzyme (i.e., SMase or PLA2);

[2] = biological target: T2, PLA2-treated LDL (Homo sapiens, UniProt P04114); test: Anti-LDL aggregation assay, turbidimetry, aggregation induced by phospholipase A2 (PLA2); format: biochemical; conditions: 18 h, read-out: Inhibition of LDL aggregation, PLA2-treated LDL
T2 construct: from tissue; host or cells: pooled normolipemic human plasma
T2 sequence (P04114 28-4563): as above
Procedure: as §1, §2, §3, §4, §5, §6, §7

[3] = system: human coronary vascular smooth muscle cells (hcVSMC); test: Inhibition of intracellular cholesterol accumulation induced by SMase (CE/FC ratio); format: cell-based; conditions: hcVSMC exposed 2 hours to SMase-LDL treated overnight with peptide 10 μM; CE and FC by thin layer chromatography and densitometry, Equation II
Procedure: Thus, the inhibitory effect of the novel compounds on the intracellular cholesterol accumulation has been analysed in terms of decrease in the ratio of intracellular CE and free cholesterol FC content of hcVSMC exposed to LDL and SMase-LDL.
All cells used were from a unique batch in order to prevent variability from cell origin. Cell quiescence was induced by maintaining the cell culture for 24 hours in a medium. Serum-deprived cells between passages 4 and 8 were used for experiments. VSMCs at these passages appeared as a relatively homogeneous population, showing a hill-and-valley confluence pattern. Cell monolayers were grown in vascular cell basal medium supplemented with vascular smooth muscle growth kit components. Quiescent cells were 2-hours exposed to LDL treated with SMase (in absence or presence of peptides) overnight at a concentration of 10 μM previously checked its aggregation by a turbidimetry test. Cells were then either collected for lipid extraction or processed for confocal microscopy analysis.
Following the lipoprotein incubation period, hcVSMC were exhaustively washed (twice with PBS, twice with PBS supplemented with 1% BSA, and once with PBS supplemented with both 1% BSA and 100 U/mL heparin), before they were harvested into 1 mL of 0.15 M NaOH. Lipids were extracted using the Bligh and Dyer method. The lipid extract was redissolved in dichloromethane, applied to silica gel plates, and separated by thin layer chromatography. A mixture of cholesterol and cholesterol palmitate, were also run as standards. Heptane or a solvent combination of heptane/diethylether/acetic acid (74:21:4, v/v/v) were used as chromatographic mobile phase. After lipid separation, the plates were dried and stained as previously reported. Finally, the spots corresponding to cholesteryl ester (CE) and free cholesterol (FC) were quantitated by densitometry.
The efficacy of each novel compound to decrease the ratio of intracellular cholesteryl esters (CE) and free cholesterol (FC) content of hcVSMC exposed to LDL and SMase-LDL was calculated according to Equation II.
a corresponds to the CE/FC ratio in hcVSMC exposed to SMase-LDL and in the presence of the test compound.
b corresponds to the CE/FC ratio in hcVSMC exposed to nLDL in the absence of the test compound.
c corresponds to the CE/FC ratio in hcVSMC exposed to SMase-LDL in the absence of the test compound.

| SMILES | inhibition at 10 µM [1] [%] | inhibition at 10 µM [2] [%] | CE/FC ratio decrease (%) [3] [%] |
| --- | --- | --- | --- |
| CC(=O)N[C@H](CC(N)=O)C(=O)N[C@H](CC(=O)O)C(=O)N[C@H](CO)C(=O)N[C@H](CCC(=O)O)C(=O)N[C@H](CC(=O)O)C(=O)N[C@H](CC(N)=O)C(=O)N[C@H](CO)C(=O)NC(CC(=O)O)C(=O)N[C@H](CCC(=O)O)C(=O)N[C@H](CCC(=O)O)C(=O)N[C@H](C)C(N)=O (stereo partly drawn) [Example 14, Ac-D-Asn-D-Asp-D-Ser-D-Glu-D-Asp-D-Asn-D-Ser-D-Asp-D-Glu-D-Glu-D-Ala-NH2] (Ac-[dN][dD][dS][dE][dD][dN][dS][ξD][dE][dE][dA]-NH2) | 68.3 | 74 | 62.7 |
| CC(=O)NCC(=O)N[C@H](CC(=O)O)C(=O)N[C@H](CC(N)=O)C(=O)N[C@H](CC(=O)O)C(=O)N[C@H](CO)C(=O)N[C@H](CCC(=O)O)C(=O)N[C@H](CC(=O)O)C(=O)N[C@H](CC(N)=O)C(=O)N[C@H](CO)C(=O)N[C@H](CC(=O)O)C(=O)N[C@H](CCC(=O)O)C(=O)N[C@H](CCC(=O)O)C(=O)N[C@H](CC(N)=O)C(N)=O [Example 1, Ac-Gly-D-Asp-D-Asn-D-Asp-D-Ser-D-Glu-D-Asp-D-Asn-D-Ser-D-Asp-D-Glu-D-lu-D-Asn-NH2] (Ac-G[dD][dN][dD][dS][dE][dD][dN][dS][dD][dE][dE][dN]-NH2) | 92.5 | 77.5 | 76.5 |
| CC(=O)N[C@H](CC(=O)O)C(=O)N[C@H](CO)C(=O)N[C@H](CCC(=O)O)C(=O)N[C@H](CC(=O)O)C(=O)N[C@H](CC(N)=O)C(=O)N[C@H](CCCCN)C(=O)N[C@H](CC(=O)O)C(=O)N[C@H](CCC(=O)O)C(=O)N[C@H](CCC(=O)O)C(=O)N[C@H](C)C(N)=O [Example 19, Ac-D-Asp-D-Ser-D-Glu-D-Asp-D-Asn-D-Lys-D-Asp-D-Glu-D-Glu-D-Ala-NH2] (Ac-[dD][dS][dE][dD][dN][dK][dD][dE][dE][dA]-NH2) | 87.5 | 46.2 | 17.7 |
| CC(=O)N[C@H](CC(=O)O)C(=O)N[C@H](CO)C(=O)N[C@H](CCC(=O)O)C(=O)N[C@H](CC(=O)O)C(=O)N[C@H](CC(N)=O)C(=O)N[C@H](C)C(=O)N[C@H](CC(=O)O)C(=O)N[C@H](CCC(=O)O)C(=O)N[C@H](CCC(=O)O)C(=O)N[C@H](C)C(N)=O [Example 16, Ac-D-Asp-D-Ser-D-Glu-D-Asp-D-Asn-D-Ala-D-Asp-D-Glu-D-Glu-D-Ala-NH2] (Ac-[dD][dS][dE][dD][dN][dA][dD][dE][dE][dA]-NH2) | 94 | 61.9 | 69.5 |
| CC(=O)N[C@H](CO)C(=O)N[C@H](CCC(=O)O)C(=O)N[C@H](CC(=O)O)C(=O)N[C@H](CC(N)=O)C(=O)N[C@H](CO)C(=O)N[C@H](CC(=O)O)C(=O)N[C@H](CCC(=O)O)C(=O)N[C@H](CCC(=O)O)C(=O)N[C@H](CC(N)=O)C(N)=O [Example 2, Ac-D-Ser-D-Glu-D-Asp-D-Asn-D-Ser-D-Asp-D-Glu-D-Glu-D-Asn-NH2] (Ac-[dS][dE][dD][dN][dS][dD][dE][dE][dN]-NH2) | 80.7 | 87.7 | 58.8 |
| CC(=O)N[C@H](CO)C(=O)N[C@H](CCC(=O)O)C(=O)N[C@H](CC(=O)O)C(=O)N[C@H](CC(N)=O)C(=O)N[C@H](CCCNC(=N)N)C(=O)N[C@H](CC(=O)O)C(=O)N[C@H](CCC(=O)O)C(=O)N[C@H](CCC(=O)O)C(=O)N[C@H](CCCNC(=N)N)C(N)=O [Example 6, Ac-D-Ser-D-Glu-D-Asp-D-Asn-D-Arg-D-Asp-D-Glu-D-Glu-D-Arg-NH2] (Ac-[dS][dE][dD][dN][dR][dD][dE][dE][dR]-NH2) | 85 | 15.3 | 58.8 |
| CC(=O)N[C@H](CC(=O)O)C(=O)N[C@H](CC(N)=O)C(=O)N[C@H](CC(=O)O)C(=O)N[C@H](CO)C(=O)N[C@H](CCC(=O)O)C(=O)NC(CC(=O)O)C(=O)N[C@H](CC(N)=O)C(=O)N[C@H](CO)C(=O)N[C@H](CC(=O)O)C(=O)N[C@H](CCC(=O)O)C(=O)N[C@H](CCC(=O)O)C(=O)N[C@H](C)C(N)=O (stereo partly drawn) [Example 13, Ac-D-Asp-D-Asn-D-Asp-D-Ser-D-Glu-D-Asp-D-Asn-D-Ser-D-Asp-D-Glu-D-Glu-D-Ala-NH2] (Ac-[dD][dN][dD][dS][dE][ξD][dN][dS][dD][dE][dE][dA]-NH2) | 95.5 | 95.9 | 80.4 |
